Measurements: article PMC10004634 (PLOS ONE, 2023)
Read-outs that look alike come from different tables or passages of the source.

Columns and labels:
Experiment in all cases: biochemical
Design in all cases: KINOMEscan scanMAX competition binding, DNA-tagged kinases, qPCR read-out, percent control at 300 nM
[1] = biological target: IRAK4 (Homo sapiens, UniProt Q9NWZ3)
[2] = biological target: T1, RSK3(Kin.Dom.1-N-terminal) (Homo sapiens, UniProt Q15349)
T1 construct: gene RPS6KA2; Kin.Dom.1-N-terminal

[3] = biological target: T2, NDR1 (Homo sapiens, UniProt Q15208)
T2 construct: gene STK38

[4] = biological target: TBK1 (Homo sapiens, UniProt Q9UHD2)
[5] = biological target: CSNK1G1 (Homo sapiens, UniProt Q9HCP0)
[6] = biological target: PIK3C2B (Homo sapiens, UniProt O00750)
Sequence of PIK3C2B (O00750 whole entry): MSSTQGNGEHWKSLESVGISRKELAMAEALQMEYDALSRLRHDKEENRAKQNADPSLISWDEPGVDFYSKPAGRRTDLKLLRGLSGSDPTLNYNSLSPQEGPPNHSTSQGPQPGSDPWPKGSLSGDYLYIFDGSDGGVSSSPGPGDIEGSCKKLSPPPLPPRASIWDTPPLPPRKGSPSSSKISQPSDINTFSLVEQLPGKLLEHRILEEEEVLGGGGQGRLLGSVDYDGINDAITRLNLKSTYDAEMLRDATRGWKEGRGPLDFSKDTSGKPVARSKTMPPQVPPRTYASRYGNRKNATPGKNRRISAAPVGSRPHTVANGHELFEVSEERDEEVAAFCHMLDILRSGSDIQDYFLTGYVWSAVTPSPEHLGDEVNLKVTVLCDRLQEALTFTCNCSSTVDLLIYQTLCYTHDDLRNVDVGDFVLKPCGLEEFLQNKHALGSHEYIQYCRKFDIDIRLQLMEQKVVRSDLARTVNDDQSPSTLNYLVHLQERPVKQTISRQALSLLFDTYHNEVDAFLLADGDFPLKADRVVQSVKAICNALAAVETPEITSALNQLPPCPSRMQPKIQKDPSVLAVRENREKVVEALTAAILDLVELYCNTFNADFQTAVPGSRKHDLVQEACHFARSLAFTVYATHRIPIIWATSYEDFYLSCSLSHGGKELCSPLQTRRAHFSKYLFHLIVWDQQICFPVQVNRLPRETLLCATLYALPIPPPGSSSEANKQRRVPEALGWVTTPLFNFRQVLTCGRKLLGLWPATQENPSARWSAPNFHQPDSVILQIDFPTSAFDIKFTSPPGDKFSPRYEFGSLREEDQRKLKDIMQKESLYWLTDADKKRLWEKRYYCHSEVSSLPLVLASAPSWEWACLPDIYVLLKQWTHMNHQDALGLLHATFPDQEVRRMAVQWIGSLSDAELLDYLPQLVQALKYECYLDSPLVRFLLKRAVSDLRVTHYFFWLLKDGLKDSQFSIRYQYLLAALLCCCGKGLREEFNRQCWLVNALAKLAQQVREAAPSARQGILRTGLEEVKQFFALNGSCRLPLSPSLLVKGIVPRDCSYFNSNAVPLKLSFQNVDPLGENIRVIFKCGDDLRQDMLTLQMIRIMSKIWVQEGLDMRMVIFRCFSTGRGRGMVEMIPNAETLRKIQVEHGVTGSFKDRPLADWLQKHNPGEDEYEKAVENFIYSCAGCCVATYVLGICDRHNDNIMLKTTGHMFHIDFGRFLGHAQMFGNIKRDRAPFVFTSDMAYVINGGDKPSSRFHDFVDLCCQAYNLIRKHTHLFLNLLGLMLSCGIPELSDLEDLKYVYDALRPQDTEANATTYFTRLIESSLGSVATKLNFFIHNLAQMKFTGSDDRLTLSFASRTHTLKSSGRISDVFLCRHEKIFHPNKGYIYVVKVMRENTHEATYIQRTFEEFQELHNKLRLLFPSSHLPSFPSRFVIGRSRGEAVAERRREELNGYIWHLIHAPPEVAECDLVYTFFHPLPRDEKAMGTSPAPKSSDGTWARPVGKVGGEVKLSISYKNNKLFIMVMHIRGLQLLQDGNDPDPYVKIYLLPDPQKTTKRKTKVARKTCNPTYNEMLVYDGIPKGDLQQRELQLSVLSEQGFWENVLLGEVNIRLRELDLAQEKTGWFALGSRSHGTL

[7] = biological target: CSNK1G2 (Homo sapiens, UniProt P78368)
[8] = biological target: ACVR1B (Homo sapiens, UniProt P36896)
[9] = biological target: T3, CDK4-cyclinD3 (Homo sapiens, UniProt P11802)
T3 construct: cyclinD3
T3 sequence (P11802 whole entry): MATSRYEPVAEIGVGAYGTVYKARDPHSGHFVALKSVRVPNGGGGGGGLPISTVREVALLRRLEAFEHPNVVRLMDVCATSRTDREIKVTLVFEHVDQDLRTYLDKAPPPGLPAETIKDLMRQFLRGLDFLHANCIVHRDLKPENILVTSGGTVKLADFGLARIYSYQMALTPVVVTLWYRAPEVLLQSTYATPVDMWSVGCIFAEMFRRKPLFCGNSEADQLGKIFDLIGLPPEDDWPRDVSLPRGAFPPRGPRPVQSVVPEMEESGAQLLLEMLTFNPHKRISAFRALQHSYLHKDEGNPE
T3 sequence (P30281 whole entry partner): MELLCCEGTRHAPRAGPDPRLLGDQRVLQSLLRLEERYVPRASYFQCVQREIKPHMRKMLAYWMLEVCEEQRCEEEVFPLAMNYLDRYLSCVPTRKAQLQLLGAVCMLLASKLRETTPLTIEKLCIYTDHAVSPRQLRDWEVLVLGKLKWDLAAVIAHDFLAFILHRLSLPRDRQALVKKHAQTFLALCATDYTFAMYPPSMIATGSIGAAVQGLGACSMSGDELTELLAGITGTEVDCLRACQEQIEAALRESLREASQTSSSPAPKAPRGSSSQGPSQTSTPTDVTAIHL

[10] = biological target: T4, GCN2(Kin.Dom.2,S808G) (Homo sapiens, UniProt Q9P2K8, S808G)
T4 construct: gene EIF2AK4; Kin.Dom.2

[11] = biological target: T5, ERK1 (Homo sapiens, UniProt P27361)
T5 construct: gene MAPK3
T5 sequence (P27361 whole entry): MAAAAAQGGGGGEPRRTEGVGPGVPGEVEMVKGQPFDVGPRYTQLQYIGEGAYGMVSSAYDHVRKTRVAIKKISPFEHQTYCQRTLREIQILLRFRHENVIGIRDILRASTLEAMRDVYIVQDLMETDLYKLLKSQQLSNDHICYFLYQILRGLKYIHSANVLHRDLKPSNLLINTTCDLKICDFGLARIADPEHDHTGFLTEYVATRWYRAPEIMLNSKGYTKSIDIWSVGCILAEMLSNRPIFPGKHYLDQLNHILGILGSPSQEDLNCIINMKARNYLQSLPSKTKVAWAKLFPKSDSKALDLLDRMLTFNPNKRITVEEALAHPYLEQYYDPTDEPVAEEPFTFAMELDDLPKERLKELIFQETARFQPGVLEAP

[12] = biological target: KIT(L576P) (Homo sapiens, UniProt P10721, L576P)
[13] = biological target: SRPK1 (Homo sapiens, UniProt Q96SB4)
[14] = biological target: NEK11 (Homo sapiens, UniProt Q8NG66)
Sequence of NEK11 (Q8NG66 whole entry): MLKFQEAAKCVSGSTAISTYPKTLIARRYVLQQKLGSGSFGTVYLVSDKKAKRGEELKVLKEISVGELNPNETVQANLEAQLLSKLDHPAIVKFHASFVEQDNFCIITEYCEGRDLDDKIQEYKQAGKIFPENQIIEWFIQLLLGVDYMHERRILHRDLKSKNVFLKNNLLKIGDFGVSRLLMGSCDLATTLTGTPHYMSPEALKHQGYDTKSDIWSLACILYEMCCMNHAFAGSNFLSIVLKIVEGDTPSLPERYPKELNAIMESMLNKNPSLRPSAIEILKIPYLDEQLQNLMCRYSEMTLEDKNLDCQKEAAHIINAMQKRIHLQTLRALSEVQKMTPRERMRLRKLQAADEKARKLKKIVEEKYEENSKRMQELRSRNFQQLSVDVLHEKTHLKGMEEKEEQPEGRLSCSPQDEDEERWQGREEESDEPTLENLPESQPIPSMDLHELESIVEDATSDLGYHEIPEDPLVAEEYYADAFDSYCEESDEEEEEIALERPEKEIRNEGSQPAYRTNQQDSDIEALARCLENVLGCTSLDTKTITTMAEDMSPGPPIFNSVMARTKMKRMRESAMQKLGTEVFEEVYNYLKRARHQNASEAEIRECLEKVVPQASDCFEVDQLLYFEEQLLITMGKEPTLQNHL

[15] = biological target: INSRR (Homo sapiens, UniProt P14616)
[16] = biological target: STK36 (Homo sapiens, UniProt Q9NRP7)
[17] = biological target: T6, ABL1(E255K)-phosphorylated (Homo sapiens, UniProt P00519, E255K)
T6 construct: phosphorylated
T6 sequence (P00519 whole entry E255K): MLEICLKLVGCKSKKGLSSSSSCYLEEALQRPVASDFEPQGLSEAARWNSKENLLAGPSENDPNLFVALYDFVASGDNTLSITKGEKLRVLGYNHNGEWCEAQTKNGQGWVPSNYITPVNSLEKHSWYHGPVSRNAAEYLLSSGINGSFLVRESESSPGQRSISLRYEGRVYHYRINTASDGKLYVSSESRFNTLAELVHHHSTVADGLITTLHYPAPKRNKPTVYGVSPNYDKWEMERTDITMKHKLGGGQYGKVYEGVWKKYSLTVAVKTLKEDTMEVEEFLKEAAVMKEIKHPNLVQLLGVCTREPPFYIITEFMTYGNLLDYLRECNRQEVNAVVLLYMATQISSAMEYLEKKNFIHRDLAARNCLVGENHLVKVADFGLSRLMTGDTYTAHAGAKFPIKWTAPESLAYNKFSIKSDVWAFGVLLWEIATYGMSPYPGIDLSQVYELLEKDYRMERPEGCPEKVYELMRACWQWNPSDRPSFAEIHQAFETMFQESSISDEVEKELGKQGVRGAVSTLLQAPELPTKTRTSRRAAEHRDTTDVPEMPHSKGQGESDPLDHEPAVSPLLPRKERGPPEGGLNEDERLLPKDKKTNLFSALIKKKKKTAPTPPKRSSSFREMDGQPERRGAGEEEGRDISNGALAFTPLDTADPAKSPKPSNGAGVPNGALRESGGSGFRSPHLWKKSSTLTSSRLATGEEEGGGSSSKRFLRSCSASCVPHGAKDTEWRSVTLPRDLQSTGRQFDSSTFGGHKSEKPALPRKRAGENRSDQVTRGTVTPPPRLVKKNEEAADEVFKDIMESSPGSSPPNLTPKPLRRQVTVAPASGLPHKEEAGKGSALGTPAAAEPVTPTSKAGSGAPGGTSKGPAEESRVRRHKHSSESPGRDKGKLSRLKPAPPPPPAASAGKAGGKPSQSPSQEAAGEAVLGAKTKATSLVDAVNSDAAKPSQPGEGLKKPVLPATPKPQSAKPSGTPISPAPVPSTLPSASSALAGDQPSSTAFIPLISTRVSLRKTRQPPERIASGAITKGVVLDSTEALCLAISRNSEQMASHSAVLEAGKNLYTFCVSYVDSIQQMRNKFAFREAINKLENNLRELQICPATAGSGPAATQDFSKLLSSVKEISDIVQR

[18] = biological target: FGFR3(G697C) (Homo sapiens, UniProt P22607, G697C)
[19] = biological target: PLK4 (Homo sapiens, UniProt O00444)
[20] = biological target: T7, AMPK-alpha1 (Homo sapiens, UniProt Q13131)
T7 construct: gene PRKAA1

[21] = biological target: T8, TIE2 (Homo sapiens, UniProt Q02763)
T8 construct: gene TEK

[22] = biological target: CLK4 (Homo sapiens, UniProt Q9HAZ1)
Sequence of CLK4 (Q9HAZ1 whole entry): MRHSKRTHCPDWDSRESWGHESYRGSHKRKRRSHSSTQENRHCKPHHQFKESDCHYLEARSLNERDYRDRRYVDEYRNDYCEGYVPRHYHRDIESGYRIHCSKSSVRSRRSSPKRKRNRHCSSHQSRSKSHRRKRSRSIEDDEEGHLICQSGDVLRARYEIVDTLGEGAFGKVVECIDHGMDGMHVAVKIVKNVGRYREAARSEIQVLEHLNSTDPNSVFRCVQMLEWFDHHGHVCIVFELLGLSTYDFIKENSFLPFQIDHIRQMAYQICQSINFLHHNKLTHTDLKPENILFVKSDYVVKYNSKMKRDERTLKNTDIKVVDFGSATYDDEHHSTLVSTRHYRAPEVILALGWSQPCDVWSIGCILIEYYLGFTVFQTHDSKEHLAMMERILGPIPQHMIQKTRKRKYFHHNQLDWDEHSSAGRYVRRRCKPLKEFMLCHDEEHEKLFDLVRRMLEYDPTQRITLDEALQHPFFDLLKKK

[23] = biological target: T9, RPS6KA5(Kin.Dom.1-N-terminal) (Homo sapiens, UniProt O75582)
T9 construct: Kin.Dom.1-N-terminal

[24] = read-out: Percent control / Acalabrutinib
[25] = read-out: Percent control / Ibrutinib
[26] = read-out: Percent control / Tirabrutinib
[27] = read-out: Percent control / Zanubrutinib

SMILES: CC#CC(=O)N1CCC[C@H]1c1nc(-c2ccc(C(=O)Nc3ccccn3)cc2)c2c(N)nccn12 [Acalabrutinib]
- remaining binding at 0.3 µM [1, 24]: 97%
- remaining binding at 0.3 µM [2, 24]: 85%
- remaining binding at 0.3 µM [3, 24]: 97%
- remaining binding at 0.3 µM [4, 24]: 91%
- remaining binding at 0.3 µM [5, 24]: 90%
- remaining binding at 0.3 µM [6, 24]: 93%
- remaining binding at 0.3 µM [7, 24]: 87%
- remaining binding at 0.3 µM [8, 24]: 99%
- remaining binding at 0.3 µM [9, 24]: 97%
- remaining binding at 0.3 µM [10, 24]: 91%
- remaining binding at 0.3 µM [11, 24]: 92%
- remaining binding at 0.3 µM [12, 24]: 86%
- remaining binding at 0.3 µM [13, 24]: 84%
- remaining binding at 0.3 µM [14, 24]: 97%
- remaining binding at 0.3 µM [15, 24]: 91%
- remaining binding at 0.3 µM [16, 24]: 90%
- remaining binding at 0.3 µM [17, 24]: 95%
- remaining binding at 0.3 µM [18, 24]: 79%

SMILES: C=CC(=O)N1CCC[C@@H](n2nc(-c3ccc(Oc4ccccc4)cc3)c3c(N)ncnc32)C1 [Ibrutinib]
- remaining binding at 0.3 µM [19, 25]: 86%
- remaining binding at 0.3 µM [20, 25]: 92%
- remaining binding at 0.3 µM [12, 25]: 72%
- remaining binding at 0.3 µM [13, 25]: 85%
- remaining binding at 0.3 µM [21, 25]: 72%
- remaining binding at 0.3 µM [16, 25]: 71%
- remaining binding at 0.3 µM [18, 25]: 77%

SMILES: CC#CC(=O)N1CC[C@@H](n2c(=O)n(-c3ccc(Oc4ccccc4)cc3)c3c(N)ncnc32)C1 [Tirabrutinib]
- remaining binding at 0.3 µM [22, 26]: 82%
- remaining binding at 0.3 µM [23, 26]: 80%

SMILES: C=CC(=O)N1CCC([C@@H]2CCNc3c(C(N)=O)c(-c4ccc(Oc5ccccc5)cc4)nn32)CC1 [Zanubrutinib]
- remaining binding at 0.3 µM [1, 27]: 91%
- remaining binding at 0.3 µM [22, 27]: 99%
- remaining binding at 0.3 µM [2, 27]: 100%
- remaining binding at 0.3 µM [3, 27]: 97%
- remaining binding at 0.3 µM [4, 27]: 93%
- remaining binding at 0.3 µM [5, 27]: 91%
- remaining binding at 0.3 µM [23, 27]: 100%
- remaining binding at 0.3 µM [6, 27]: 62%
- remaining binding at 0.3 µM [19, 27]: 84%
- remaining binding at 0.3 µM [7, 27]: 88%
- remaining binding at 0.3 µM [8, 27]: 92%
- remaining binding at 0.3 µM [9, 27]: 98%
- remaining binding at 0.3 µM [20, 27]: 88%
- remaining binding at 0.3 µM [10, 27]: 100%
- remaining binding at 0.3 µM [11, 27]: 87%
- remaining binding at 0.3 µM [14, 27]: 98%
- remaining binding at 0.3 µM [21, 27]: 99%
- remaining binding at 0.3 µM [15, 27]: 96%
- remaining binding at 0.3 µM [17, 27]: 80%
